Consider eight compounds from patent US20250378918A1, “Phenotype-Based Chemical Screens” (Nemametrix, priority 2015, published 2025).

One experiment has as its system zebrafish larvae. Nature of the experiment: phenoBlast query of behavioral profile database with haloperidol profile. Type of experiment: in vivo. The conditions noted are these: screened at 10 μM; cutoff = DMSO control well most similar to haloperidol query; FIGS. 2A-2C. The method, then:
To identify compounds with haloperidol-like behavioral profiles, the behaviors of zebrafish larvae in 29,760 compound-treated wells (including 4,300 known bioactive compounds, 20,000 uncharacterized novel compounds and more than 5,000 DMSO controls) were systematically quantified. Behavioral profiles from each well were compiled into a database. Then, the average profile of three haloperidol (5 μM)-treated wells was used to query the compiled database for additional compounds that cause haloperidol-like phenotypes. […] Four of the known hit compounds were antipsychotic drugs (including three butyrophenones and one tricyclic). A fifth compound, DO 897/99 has been under investigation for treatment of schizophrenia and a sixth compound, lidoflazine, is structurally related to the known antipsychotic amperozide and other antipsychotics in the diphenylbutylpiperidine class (e.g., clopimozide, fluspirilene and pimozide) (FIG. 2C).
The Actiprobe library (TimTec Corporation) contains 10,000 compounds dissolved in DMSO at a stock concentration of 1 mg/ml (˜3 mM). The Chembridge library (Chembridge Corporation) contains 10,000 compounds dissolved in DMSO at a stock concentration of 1 mM. The Spectrum Collection (MicroSource Discovery) contains 2,320 compounds dissolved in DMSO at a concentration of 10 mM. The Prestwick library (Prestwick Chemical) contains 1,280 approved drugs dissolved in DMSO at a stock concentration of 10 mM. […]
Digital video were captured at 25 frames per second using an AVT Pike digital camera. […] To analyze digital video recordings, a motion index was calculated by frame differencing. […]
For each well, the raw motion index from each assay was concatenated into a 10,500-point motion index time series. […] The haloperidol query was calculated by averaging the time series from three replicate haloperidol-treated wells. To calculate the phenoBLAST distance metric, L1 distances were calculated by: phenoBLAST Distance=sum (abs(query-well)), where ‘query’ and ‘well’ indicate their associated time series.

The subject of a further experiment is larval zebrafish. Nature of the experiment: battery of ten zebrafish behavioral assays (motion index). The conditions noted are these: for haloperidol-like behavioral phenotype: antipsychotic drugs, FIG. 1B. Type of experiment: in vivo. The method, then:
Haloperidol, a butyrophenone, is known to bind at least 20 molecular targets found in the human brain. To determine how haloperidol affects zebrafish behavior, a battery of ten behavioral assays was developed to compare behavioral profiles from control (DMSO) and haloperidol-treated animals.
A large number of fertilized eggs (up to 20,000 embryos per day) were collected from group matings of Ekkwill zebrafish. Embryos were raised in hatching jars at 28° C. on a 14/10 hour light/dark cycle until 3 days post fertilization (d.p.f.), then transferred to an incubator under the same conditions until 7 d.p.f. Groups of approximately ten larvae (7 d.p.f.) were distributed into the wells of clear flat bottom square well 96-well plates filled with E3 medium (300 μl). Larvae were then incubated at 25° C. on the bench top for one hour prior to chemical treatment and subsequent experiments. All zebrafish protocols were approved by the Institutional Animal Care and Use Committee at Massachusetts General Hospital or at Teleos Therapeutics, LLC.
The Actiprobe library (TimTec Corporation) contains 10,000 compounds dissolved in DMSO at a stock concentration of 1 mg/ml (˜3 mM). The Chembridge library (Chembridge Corporation) contains 10,000 compounds dissolved in DMSO at a stock concentration of 1 mM. The Spectrum Collection (MicroSource Discovery) contains 2,320 compounds dissolved in DMSO at a concentration of 10 mM. The Prestwick library (Prestwick Chemical) contains 1,280 approved drugs dissolved in DMSO at a stock concentration of 10 mM. The Neurotransmitter library (Biomol International; cat. No. 2810) contains 700 compounds dissolved in DMSO at a stock concentration of 10 mM. All compounds were diluted in E3 buffer and screened at 10 μM final concentration and <1% DMSO. Negative controls were treated with an equal volume of DMSO. Stock solutions were added directly to zebrafish in the wells of a 96-well plate, mixed and allowed to incubate for 1 h at room temperature before behavioral evaluation in the Behavioral Battery of assays. Reordered hit compounds were dissolved in DMSO to a stock concentration of 30 mM and added to wells as described above. Hits were retested at a concentration range of 50, 10, 5, 1, 0.5, 0.1, and 0.05 μM in triplicate; assays for retesting were run at 10-minute and 1-hour incubation time points.
Digital video were captured at 25 frames per second using an AVT Pike digital camera. High intensity LEDs were used to deliver violet (405 nm), blue (450 nm), and red (660 nm) light stimuli. Acoustic stimuli were delivered using push-style solenoids to tap the stage. Stimuli and digital recordings were applied to the entire 96-well plate simultaneously. Instrument control and data acquisition were performed using custom MATLAB scripts. Each assay, including video recording and data processing, took ˜40 s per plate per 30 s assay, enabling us to routinely screen 96 wells against a battery of ten assays in less than ten minutes. To analyze digital video recordings, a motion index was calculated by frame differencing. […] The behavioral battery was comprised of ten assays (Assay 1-10) performed in numerical order. phenoBlast ranking and statistics

The structures appear in SMILES notation.

`COc1ccccc1N1CCN(CCCCNC(=O)c2ccc3ccccc3c2)CC1.Cl.Cl` [DO 897/99]: the “phenoBlast similarity to haloperidol (5 μM) query profile, hit ranking” value (“phenoBlast similarity to haloperidol” for short) with zebrafish larvae is on record as “hit compounds”.

Regarding `O=C(CCCN1CCC(O)(c2ccc(Br)cc2)CC1)c1ccc(F)cc1` [bromperidol], the haloperidol-like behavioral phenotype entry with larval zebrafish is listed as “cause haloperidol-like behaviors”. Besides, in the experiment on zebrafish larvae, the “phenoBlast similarity to haloperidol” value is recorded as “top ranked hit compound”.

Take `CN1CCN(CCCN2c3ccccc3Sc3ccc(Cl)cc32)CC1` [prochlorperazine]: in the experiment on larval zebrafish, the haloperidol-like behavioral phenotype entry was “cause haloperidol-like behaviors”.

Turning to `O=C(CCCN1CCC(O)(c2ccc(Cl)cc2)CC1)c1ccc(F)cc1` [haloperidol], in the experiment with larval zebrafish (high concentrations (50 μM)), the “effect on locomotion of larval zebrafish” value was “locomotor impairment”. For the same compound, the “motion index in behavioral battery” value with larval zebrafish (lower concentrations (5 μM), FIG. 1A) is “complex pattern of increased activity”.

`O=C(CCCN1CC=C(n2c(=O)[nH]c3ccccc32)CC1)c1ccc(F)cc1` [droperidol]: in the experiment on larval zebrafish, the haloperidol-like behavioral phenotype result was “cause haloperidol-like behaviors”.

Consider `Cc1cccc(C)c1NC(=O)CN1CCN(CCCC(c2ccc(F)cc2)c2ccc(F)cc2)CC1` [lidoflazine], for which, in the experiment with zebrafish larvae, the “phenoBlast similarity to haloperidol” value is given as “hit compounds”.

Consider `CSc1ccc2c(c1)N(CCC1CCCCN1C)c1ccccc1S2` (stereo not shown) [thioridazine], for which the haloperidol-like behavioral phenotype result with larval zebrafish is “cause haloperidol-like behaviors”.

With `c1ccc2c(c1)Nc1ccccc1S2` [phenothiazine], in the experiment with larval zebrafish, the haloperidol-like behavioral phenotype entry is reported as “cause haloperidol-like behaviors”.
